Data reported in PubChem BioAssay AID270 (DTP/NCI, 2004).
Values joined by “and” are separate entries in the source; they are usually repeats but may differ in a detail not shown here. Identical values can stand only once. Inconclusive results are not listed.

Test system: BDF1 mice, s.c. Lewis lung carcinoma, T/C %
Assay: NCI In Vivo Anticancer Drug Screen. Data for tumor model Lewis Lung Carcinoma (subcutaneous) in B6D2F1 (BDF1) mice
Experimental: The antitumor activity of compounds was measured in mice bearing transplantable tumors. Survival or tumor size were measured and the results are expressed as the measurement made in the treated group (T) divided by the measurement made in the vehicle treated control group (C). The tumor model used in this assay is Lewis Lung Carcinoma (subcutaneous) in B6D2F1 (BDF1) mice

[1] = endpoint: mean tumor weight, dose: 100.0 mg/kg/injection, schedule: Q01DX011 (ip), vehicle: saline, higher = larger tumour
[2] = endpoint: median survival time, dose: 100.0 mg/kg/injection, schedule: Q01DX009 (ip), vehicle: Klucel (hydroxypropylcellulose) (HPC), higher = longer survival

With `N#Cc1ccc(NC(=O)N(CCCl)N=O)cc1` the T/C (endpoint: median tumor weight (est.), dose: 13.0 mg/kg/injection, schedule: Q01DX001 (ip), vehicle: Klucel (hydroxypropylcellulose) (HPC), higher = larger tumour) was 83 % of control, the T/C (endpoint: median tumor weight (est.), dose: 19.0 mg/kg/injection, schedule: Q01DX001 (ip), vehicle: Klucel (hydroxypropylcellulose) (HPC), higher = larger tumour) was 118 % of control and the T/C (endpoint: median tumor weight (est.), dose: 29.0 mg/kg/injection, schedule: Q01DX001 (ip), vehicle: Klucel (hydroxypropylcellulose) (HPC), higher = larger tumour) was 109 % of control. For the same molecule, the T/C (endpoint: median tumor weight (est.), dose: 44.0 mg/kg/injection, schedule: Q01DX001 (ip), vehicle: Klucel (hydroxypropylcellulose) (HPC), higher = larger tumour) was 73 % of control and the T/C (endpoint: median tumor weight (est.), dose: 67.0 mg/kg/injection, schedule: Q01DX001 (ip), vehicle: Klucel (hydroxypropylcellulose) (HPC), higher = larger tumour) was 39 % of control.
In the case of `O=C(Nc1ccc(C2=NCCN2)cc1)c1cc(Cl)cc(C(=O)Nc2ccc(C3=NCCN3)cc2)c1`, the T/C [1] was 93 % of control, the T/C (endpoint: mean tumor weight, dose: 200.0 mg/kg/injection, schedule: Q01DX011 (ip), vehicle: saline, higher = larger tumour) was 66 % of control and the T/C (endpoint: mean tumor weight, dose: 400.0 mg/kg/injection, schedule: Q01DX011 (ip), vehicle: saline, higher = larger tumour) was 51 % of control. For the same molecule, the T/C (endpoint: mean tumor weight, dose: 800.0 mg/kg/injection, schedule: Q01DX011 (ip), vehicle: saline, higher = larger tumour) was 21 % of control.
`CCSC(=O)N1c2ccc(OC)cc2C=CC1C#N` (centres undefined) was tested, and the T/C (endpoint: median survival time, dose: 100.0 mg/kg/injection, schedule: Q01DX009 (ip), vehicle: saline with Tween-80, higher = longer survival) was 122 % of control, the T/C (endpoint: median survival time, dose: 200.0 mg/kg/injection, schedule: Q01DX009 (ip), vehicle: saline with Tween-80, higher = longer survival) was 102 % of control and the T/C (endpoint: median survival time, dose: 400.0 mg/kg/injection, schedule: Q01DX009 (ip), vehicle: saline with Tween-80, higher = longer survival) was 108 % of control.
`CCCCCCCCCCCCCS` was tested, and the T/C (endpoint: mean tumor weight, dose: 66.0 mg/kg/injection, schedule: Q01DX011 (ip), vehicle: saline, higher = larger tumour) was 106 % of control, the T/C [1] was 77 % of control and the T/C (endpoint: mean tumor weight, dose: 150.0 mg/kg/injection, schedule: Q01DX011 (ip), vehicle: saline, higher = larger tumour) was 91 % of control.
With `CCCCCC[C@H]([C@H](C)O)n1cnc2c(N)ncnc21` the T/C (endpoint: median survival time, dose: 25.0 mg/kg/injection, schedule: Q01DX009 (ip), vehicle: Klucel (hydroxypropylcellulose) (HPC), higher = longer survival) was 88 % of control, the T/C (endpoint: median survival time, dose: 50.0 mg/kg/injection, schedule: Q01DX009 (ip), vehicle: Klucel (hydroxypropylcellulose) (HPC), higher = longer survival) was 103 % of control and the T/C [2] was 111 % of control.
`C[C@]12CC[C@H](O)C[C@@]1(O)CC[C@@H]1[C@@H]2CC[C@]2(C)[C@@H](c3ccc(=O)oc3)CC[C@]12O` was tested, and the T/C (endpoint: median survival time, dose: 1.25 mg/kg/injection, schedule: Q01DX009 (ip), vehicle: Klucel (hydroxypropylcellulose) (HPC), higher = longer survival) was 97 % of control, the T/C (endpoint: median survival time, dose: 2.5 mg/kg/injection, schedule: Q01DX009 (ip), vehicle: Klucel (hydroxypropylcellulose) (HPC), higher = longer survival) was 98 % of control and the T/C (endpoint: median survival time, dose: 10.0 mg/kg/injection, schedule: Q01DX009 (ip), vehicle: Klucel (hydroxypropylcellulose) (HPC), higher = longer survival) was 104 % of control. For the same molecule, the T/C (endpoint: median survival time, dose: 20.0 mg/kg/injection, schedule: Q01DX009 (ip), vehicle: Klucel (hydroxypropylcellulose) (HPC), higher = longer survival) was 113 % of control.
For `NC(=O)c1ccc(NC(=O)CCC(=O)Nc2ccc(C(N)=O)cn2)nc1`, the T/C (endpoint: mean tumor weight, dose: 1.25 mg/kg/injection, schedule: Q01DX011 (ip), vehicle: carboxymethylcellulose (CMC), higher = larger tumour) was 54 % of control and the T/C (endpoint: mean tumor weight, dose: 2.5 mg/kg/injection, schedule: Q01DX011 (ip), vehicle: carboxymethylcellulose (CMC), higher = larger tumour) was 24 % of control.
In the case of `NC(Cc1ccc(N(CCCl)CCCl)cc1)C(=O)O` (centres undefined), the T/C (endpoint: mean tumor weight, dose: 1.5 mg/kg/injection, schedule: Q01DX011 (ip), vehicle: carboxymethylcellulose (CMC), higher = larger tumour) was 75 % of control, the T/C (endpoint: mean tumor weight, dose: 2.5 mg/kg/injection, schedule: Q01DX011 (ip), vehicle: saline, higher = larger tumour) was 52 % of control and the T/C (endpoint: mean tumor weight, dose: 3.0 mg/kg/injection, schedule: Q01DX011 (ip), vehicle: carboxymethylcellulose (CMC), higher = larger tumour) was 50 % of control. For the same molecule, the T/C (endpoint: mean tumor weight, dose: 4.5 mg/kg/injection, schedule: Q01DX011 (ip), vehicle: carboxymethylcellulose (CMC), higher = larger tumour) was 32 % of control, the T/C (endpoint: mean tumor weight, dose: 5.0 mg/kg/injection, schedule: Q01DX011 (ip), vehicle: saline, higher = larger tumour) was 33 % of control and the T/C (endpoint: mean tumor weight, dose: 10.0 mg/kg/injection, schedule: Q01DX011 (ip), vehicle: saline, higher = larger tumour) was 3 % of control.
`O=NN(CCCl)C(=O)Nc1cc2c3ccccc3ccc2c2ccccc12` was tested, and the T/C (endpoint: median survival time, dose: 3.12 mg/kg/injection, schedule: Q01DX009 (ip), vehicle: Klucel (hydroxypropylcellulose) (HPC), higher = longer survival) was 95 % of control, the T/C (endpoint: median survival time, dose: 6.25 mg/kg/injection, schedule: Q01DX009 (ip), vehicle: Klucel (hydroxypropylcellulose) (HPC), higher = longer survival) was 100 % of control and the T/C (endpoint: median survival time, dose: 12.5 mg/kg/injection, schedule: Q01DX009 (ip), vehicle: Klucel (hydroxypropylcellulose) (HPC), higher = longer survival) was 96 % of control.
For `COc1cccc2c1C(=O)c1c(O)c3c(c(O)c1C2=O)C[C@@](O)(C(C)=O)C[C@@H]3OC1CC(N)C(O)C(C)O1` (some centres undefined), the T/C (endpoint: mean tumor weight, dose: 0.6 mg/kg/injection, schedule: Q01DX011 (ip), vehicle: saline, higher = larger tumour) was 85 % of control, the T/C (endpoint: mean tumor weight, dose: 1.0 mg/kg/injection, schedule: Q01DX011 (sc), vehicle: steriod suspending solution, higher = larger tumour) was 116 % of control and the T/C (endpoint: mean tumor weight, dose: 1.2 mg/kg/injection, schedule: Q01DX011 (ip), vehicle: saline, higher = larger tumour) was 89 % of control. The T/C (endpoint: mean tumor weight, dose: 1.8 mg/kg/injection, schedule: Q01DX011 (ip), vehicle: saline, higher = larger tumour) was 69 % of control and 81 % of control, the T/C (endpoint: mean tumor weight, dose: 2.7 mg/kg/injection, schedule: Q01DX011 (ip), vehicle: saline, higher = larger tumour) was 56 % of control and the T/C (endpoint: mean tumor weight, dose: 5.0 mg/kg/injection, schedule: Q01DX011 (sc), vehicle: steriod suspending solution, higher = larger tumour) was 81 % of control. The T/C (endpoint: median survival time, dose: 0.12 mg/kg/injection, schedule: Q01DX009 (ip), vehicle: saline, higher = longer survival) was 101 % of control and 104 % of control and 110 % of control, the T/C (endpoint: median survival time, dose: 125.0 micrograms/kg/injection, schedule: Q01DX009 (ip), vehicle: saline, higher = longer survival) was 92 % of control and the T/C (endpoint: median survival time, dose: 500.0 micrograms/kg/injection, schedule: Q01DX009 (ip), vehicle: saline, higher = longer survival) was 100 % of control. For the same molecule, the T/C (endpoint: median survival time, dose: 1000.0 micrograms/kg/injection, schedule: Q01DX009 (ip), vehicle: saline, higher = longer survival) was 90 % of control and the T/C (endpoint: median survival time, dose: 2000.0 micrograms/kg/injection, schedule: Q01DX009 (ip), vehicle: saline, higher = longer survival) was 97 % of control.
`COC1=CC(=O)N(C(=O)C2CSC(C(CO)NC(=O)c3csc(/C=N/O)n3)=N2)C1` (centres undefined) was tested, and the T/C [2] was 92 % of control and the T/C (endpoint: median survival time, dose: 200.0 mg/kg/injection, schedule: Q01DX009 (ip), vehicle: Klucel (hydroxypropylcellulose) (HPC), higher = longer survival) was 92 % of control.
With `CN(C)C(=O)N(CCCl)N=O` the T/C (endpoint: median survival time, dose: 6.25 mg/kg/injection, schedule: Q01DX001 (ip), vehicle: water, higher = longer survival) was 102 % of control and the T/C (endpoint: median survival time, dose: 12.5 mg/kg/injection, schedule: Q01DX001 (ip), vehicle: water, higher = longer survival) was 112 % of control.
`CN(C1=NS(=O)(=O)N=C(N(C)c2ccccc2)O1)c1ccccc1` was tested, and the T/C (endpoint: median survival time, dose: 14.37 mg/kg/injection, schedule: Q01DX009 (ip), vehicle: Klucel (hydroxypropylcellulose) (HPC), higher = longer survival) was 111 % of control, the T/C (endpoint: median survival time, dose: 28.75 mg/kg/injection, schedule: Q01DX009 (ip), vehicle: Klucel (hydroxypropylcellulose) (HPC), higher = longer survival) was 104 % of control and the T/C (endpoint: median survival time, dose: 57.5 mg/kg/injection, schedule: Q01DX009 (ip), vehicle: Klucel (hydroxypropylcellulose) (HPC), higher = longer survival) was 103 % of control. For the same molecule, the T/C (endpoint: median survival time, dose: 115.0 mg/kg/injection, schedule: Q01DX009 (ip), vehicle: Klucel (hydroxypropylcellulose) (HPC), higher = longer survival) was 100 % of control and the T/C (endpoint: median survival time, dose: 230.0 mg/kg/injection, schedule: Q01DX009 (ip), vehicle: Klucel (hydroxypropylcellulose) (HPC), higher = longer survival) was 96 % of control.
In the case of `CCCC(Sc1nc(N)nc2nc[nH]c12)C(=O)O` (centres undefined), the T/C (endpoint: mean tumor weight, dose: 5.0 mg/kg/injection, schedule: Q01DX011 (ip), vehicle: other, higher = larger tumour) was 115 % of control, the T/C (endpoint: mean tumor weight, dose: 10.0 mg/kg/injection, schedule: Q01DX011 (ip), vehicle: other, higher = larger tumour) was 58 % of control and the T/C (endpoint: mean tumor weight, dose: 20.0 mg/kg/injection, schedule: Q01DX011 (ip), vehicle: other, higher = larger tumour) was 17 % of control. For the same molecule, the T/C (endpoint: mean tumor weight, dose: 40.0 mg/kg/injection, schedule: Q01DX011 (ip), vehicle: other, higher = larger tumour) was 49 % of control and 69 % of control, the T/C (endpoint: mean tumor weight, dose: 160.0 mg/kg/injection, schedule: Q01DX011 (ip), vehicle: other, higher = larger tumour) was 64 % of control and the T/C (endpoint: mean tumor weight, dose: 320.0 mg/kg/injection, schedule: Q01DX011 (ip), vehicle: other, higher = larger tumour) was 50 % of control and 69 % of control. For the same molecule, the T/C (endpoint: mean tumor weight, dose: 640.0 mg/kg/injection, schedule: Q01DX011 (ip), vehicle: other, higher = larger tumour) was 48 % of control.
For `CC[CH2][Pb]([Cl])([CH2]CC)[CH2]CC`, the T/C (endpoint: median survival time, dose: 0.01 mg/kg/injection, schedule: Q01DX009 (ip), vehicle: DMSO, higher = longer survival) was 101 % of control, the T/C (endpoint: median survival time, dose: 0.02 mg/kg/injection, schedule: Q01DX009 (ip), vehicle: DMSO, higher = longer survival) was 93 % of control and the T/C (endpoint: median survival time, dose: 0.04 mg/kg/injection, schedule: Q01DX009 (ip), vehicle: DMSO, higher = longer survival) was 98 % of control. For the same molecule, the T/C (endpoint: median survival time, dose: 0.04 mg/kg/injection, schedule: Q01DX009 (ip), vehicle: Klucel (hydroxypropylcellulose) (HPC), higher = longer survival) was 94 % of control, the T/C (endpoint: median survival time, dose: 0.08 mg/kg/injection, schedule: Q01DX009 (ip), vehicle: DMSO, higher = longer survival) was 107 % of control and the T/C (endpoint: median survival time, dose: 0.09 mg/kg/injection, schedule: Q01DX009 (ip), vehicle: Klucel (hydroxypropylcellulose) (HPC), higher = longer survival) was 106 % of control. The T/C (endpoint: median survival time, dose: 0.18 mg/kg/injection, schedule: Q01DX009 (ip), vehicle: Klucel (hydroxypropylcellulose) (HPC), higher = longer survival) was 100 % of control, the T/C (endpoint: median survival time, dose: 0.37 mg/kg/injection, schedule: Q01DX009 (ip), vehicle: DMSO, higher = longer survival) was 108 % of control and the T/C (endpoint: median survival time, dose: 0.37 mg/kg/injection, schedule: Q01DX009 (ip), vehicle: Klucel (hydroxypropylcellulose) (HPC), higher = longer survival) was 104 % of control.
